In patent publication US7511119B2, “PRAME peptide analogues” (MannKind Corporation, priority 2005, dated 2009):
Like-named read-outs stand apart in the source and are kept apart here. Numbered stars: 1 amine (or outer) side, 2 acyl side, 3 side chain; on linkers, the order of the positions; unused ones are H or OH. Square brackets hold non-standard residues; d marks the D form. Ends that are not written are not given here. Peptide text beside a SMILES is read from it. Tyr(Me) = O-methyl-Tyr, COc1ccc(C[C@H](N[*:1])C(=O)[*:2])cc1; Phe(4-NO2) = N[C@@H](Cc1ccc([N+](=O)[O-])cc1)C(=O)O; Bta = N[C@@H](Cc1csc2ccccc12)C(=O)O; Phg = N[C@H](C(=O)O)c1ccccc1; Nle = CCCC[C@H](N)C(=O)O; Orn = NCCC[C@H](N)C(=O)O; Nva = CCC[C@H](N)C(=O)O

B1: SSX2 41-49 (K41(Phe-4NO2)) (peptide)
peptide: [Phe(4-NO2)]ASEKIFYV
notes: also called para-nitrophenylalanine analog

Legend:
[1] = biological target: HLA-A*0201 (Homo sapiens, UniProt P04439, D140Y/D185E/D98H/E176V/E277Q/G131W/G231S/I119V/I121R/I166T/I218V/L300P/L318F/N151K/N90K/P208A/P217A/Q86G/Q94H/R138H/R169H/T345S); test: Peptide binding using T2 cells; settings: half maximal binding of wild-type peptide relative to analog;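 note: Read-out is peptide-induced stabilization of HLA-A*0201 on the cell surface, reflecting mainly Kon at limiting peptide levels and both Kon and Koff at saturating levels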
Text: Thus, at limiting concentrations of peptide, it is a measurement of Kon mostly and at saturation levels of peptide it is a measurement of both Kon and Koff.
Thus, at limiting concentrations of peptide, this is a measurement of Kon mostly and at saturation levels of peptide that is a measurement of both Kon and Koff.

[2] = system: T cell lines against natural epitope SSX-241-49; test: Cross-reactivity and functional avidity: IFN-gamma production by T cell lines raised against natural SSX-2 41-49; assay type: cell-based, HHD transgenic mice; settings: T cells raised to native peptide tested on analogs; footnote * and unit not given;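 note: analogs presented ex vivo by competent APCs to T cells specific for the non-mutated epitope, scored by lowest activating concentration, peak cytokine effect and concentration at that peak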
[3] = system: native PSMA288-297 peptide; test: Cross-reactive immunogenicity of PSMA analogs, IFN-gamma ELISPOT; assay type: in vivo, HHD transgenic mice; settings: peptide plus pI:C intranodal; FIG. 22
Procedure: Groups of HHD transgenic mice (n=8) were immunized with peptide (natural epitope PSMA288-297, or analogs bearing substitutions at primary or secondary anchor residues) by direct inoculation into the inguinal lymph nodes, with 25 μg in 25 μl of PBS+12.5 μg of pI:C to each lymph node at day 0, 3, 14 and 17.
Mice were sacrificed at 10 days after the last boost, and splenocytes prepared and assessed for IFN-γ production by ELISPOT analysis. […] At 48 hours after incubation, the assay was developed and the frequency of cytokine-producing T cells that recognized native PSMA288-297 peptide was automatically counted. The data is represented in FIG. 22 as the number of spot forming colonies/well (mean of triplicates±SD). […] To the extent that the poor immunogenicity of the native epitope reflects tolerance, the improved activity of these analogs represents tolerance breaking.

[4] = biological target: T1, HLA-A*0201 on T2 cells (human); test: T2 cells, wild-type/analog half-maximal binding
T1 construct: whole, on cells; Class I MHC on the surface of T2 cells, detected with a fluorescent anti-A2 antibody; beta2-microglobulin is not mentioned for this assay; also called MHC class I (A2 allele)

[5] = biological target: T1, HLA-A*0201 on T2 cells; test: T2 cells, wild-type/analog half-maximal binding; remark: listed apart in the source
[6] = biological target: T1, HLA-A*0201 on T2 cells; test: T2 cells, wild-type/analog half-maximal binding; remark: listed apart in the source
[7] = biological target: T2, HLA-A*0201 class I monomer of the iTopia Epitope Discovery System; test: iTopia affinity assay
T2 construct: also called A0201 restricted MHC Class 1 molecules; MHC monomer

Molecule	Relative affinity (1/RA) [1]	Cross-reactivity and fct avidity (native to analogs)* [2]	also measured
CC[C@H](C)[C@H](NC(=O)[C@H](CCCCN)NC(=O)[C@H](CCC(=O)O)NC(=O)[C@H](CO)NC(=O)[C@@H](NC(=O)[C@@H](N)Cc1ccccc1)C(C)C)C(=O)N[C@@H](Cc1ccccc1)C(=O)N[C@H](C(=O)N[C@H](C(=O)O)C(C)C)c1ccccc1 [SSX2 41-49 (K41F, A42V, Y48Phg), FVSEKIF(Phg)V] (H-FVSEKIF[Phg]V-OH)	2.5	>10	
CC[C@H](C)[C@H](NC(=O)[C@H](CCCCN)NC(=O)[C@H](CCC(=O)O)NC(=O)[C@H](CO)NC(=O)[C@@H](NC(=O)[C@@H](N)Cc1ccc(O)cc1)C(C)C)C(=O)N[C@@H](Cc1ccccc1)C(=O)N[C@@H](Cc1ccc(O)cc1)C(=O)N[C@H](C(=O)O)C(C)C [SSX2 41-49 (K41Y, A42V)]	1.0	0.1	
FISEKIFYV [SSX2 41-49 (K41F, A42I)]	2.7	0.3	
FVSDKIFYV [SSX2 41-49 (K41F, A42V, E44D)]	1.1	>10	
FVSEKIFSV [SSX2 41-49 (K41F, A42V, Y48S)]	3.9	>10	
FVSEKIFTV-OH [SSX2 41-49 (K41F, A42V, Y48T)]	3.8	>10	
FVSEKIFYM [SSX2 41-49 (K41F, A42V, V49M)]	0.8	>10	
FVSEKIFYV [SSX2 41-49 (K41F, A42V)]	3.1	0.1	
FVSEKLFSA	2.4	>10	
FVSEKLFTV [SSX2 41-49 (K41F, A42V, I46L, Y48T)]	2.6	>10	
FVSEKLFYV [SSX2 41-49 (K41F, A42V, I46L)]	1.9	3	
FVSQKIFYV [SSX2 41-49 (K41F, A42V, E44Q)]	0.4	10	
GLWSIPVHPI [Peptide P290W]			priming of immune response against native PSMA288-297 (IFN-γ ELISPOT), in words [3]: increased priming
KASEKIFYI-OH [SSX2 41-49(V49I)]	1.0	10	
KISEKIFYV [SSX2 41-49 (A42I)]	1.7	3	
KLSEKIFYI [SSX2 41-49 (A42L, V49I)]	2.6	0.03	
KMSEKIFYV [SSX2 41-49 (A42M)]	1.7	0.1	
WLSEKIFYV-OH [SSX2 41-49 (K41W, A42L)]	3.3	0.3	
WMSEKIFYV-OH [SSX2 41-49 (K41W, A42M)]	2.9	1	
WVSEKIFYV-OH [SSX2 41-49 (K41W, A42V)]	3.0	1	

Molecule	Relative affinity (1/RA) [1]	Cross-reactivity and fct avidity (native to analogs)* [2]	also measured
YMSEKIFYV-OH [SSX2 41-49 (K41Y, A42M)]	0.6	3	
FVSEKIFYV [SSX2 41-49 (K41F, A42V)]			Relative affinity (1/RA) [4]: 3.1 1/RA
FASEKIFYV [SSX2 41-49 (K41F)]			Relative affinity (1/RA) [5]: 1.5 1/RA
FISEKIFYV [SSX2 41-49 (K41F, A42I)]			Relative affinity (1/RA) [4]: 2.7 1/RA
FVSDKIFYV [SSX2 41-49 (K41F, A42V, E44D)]			Relative affinity (1/RA) [6]: 1.1 1/RA
FVSQKIFYV [SSX2 41-49 (K41F, A42V, E44Q)]			Relative affinity (1/RA) [6]: 0.4 1/RA
FVSEKLFYV [SSX2 41-49 (K41F, A42V, I46L)]			Relative affinity (1/RA) [6]: 1.9 1/RA
FVSEKLFSA [SSX2 41-49 (K41F, A42V, I46L, Y48S, V49A)]			Relative affinity (1/RA) [6]: 2.4 1/RA
FVSEKLFTV [SSX2 41-49 (K41F, A42V, I46L, Y48T)]			Relative affinity (1/RA) [6]: 2.6 1/RA
FVSEKIFFV [SSX2 41-49 (K41F, A42V, Y48F)]			Relative affinity (1/RA) [6]: 1.7 1/RA
FVSEKIFSV [SSX2 41-49 (K41F, A42V, Y48S)]			Relative affinity (1/RA) [6]: 3.9 1/RA
FVSEKIFTV [SSX2 41-49 (K41F, A42V, Y48T)]			Relative affinity (1/RA) [6]: 3.8 1/RA
WLSEKIFYV [SSX2 41-49 (K41W, A42L)]			Relative affinity (1/RA) [4]: 3.3 1/RA
WMSEKIFYV [SSX2 41-49 (K41W, A42M)]			Relative affinity (1/RA) [4]: 2.9 1/RA
WVSEKIFYV [SSX2 41-49 (K41W, A42V)]			Relative affinity (1/RA) [4]: 3 1/RA
YASEKIFYV [SSX2 41-49 (K41Y)]			Relative affinity (1/RA) [5]: 1.7 1/RA
YLSEKIFYV [SSX2 41-49 (K41Y, A42L)]			Relative affinity (1/RA) [4]: 1.2 1/RA
YMSEKIFYV [SSX2 41-49 (K41Y, A42M)]			Relative affinity (1/RA) [4]: 0.6 1/RA
FVS[Nle]KIFYV (also called FVS(Nle)KIFYV) [SSX2 41-49 (K41F, A42V, E44Nle)]			Relative affinity (1/RA) [6]: 1.1 1/RA
FVS[Nva]KIFYV (also called FVS(Nva)KIFYV) [SSX2 41-49 (K41F, A42V, E44Nva)]			Relative affinity (1/RA) [6]: 3.9 1/RA

Molecule	Relative affinity (1/RA) [1]	Cross-reactivity and fct avidity (native to analogs)* [2]	also measured
FVSEK[Nle]FYV (also called FVSEK(Nle)FYV) [SSX2 41-49 (K41F, A42V, I46Nle)]			Relative affinity (1/RA) [6]: 1.1 1/RA
FVSEK[Nva]FYV (also called FVSEK(Nva)FYV) [SSX2 41-49 (K41F, A42V, I46Nva)]			Relative affinity (1/RA) [6]: 2.4 1/RA
FVSEKIFXV (P8 = Phe(4-F), 4-fluorophenylalanine, also called FVSEKIF(Phe-4F)V) [SSX2 41-49 (K41F, A42V, Y48(Phe-4F))]			Relative affinity (1/RA) [6]: 1.4 1/RA
FVSEKIF[Phg]V (also called FVSEKIF(Phg)V) [SSX2 41-49 (K41F, A42V, Y48Phg)]			Relative affinity (1/RA) [6]: 2.5 1/RA
S[Nva]LQHLIGL [PRAME425-433 analog with Nva at P2]			fold reduction of affinity (ED50) against the native peptide [7]: ≤ 3 fold
SILQHLIGL [PRAME425-433 analog with Ile at P2]			fold reduction of affinity (ED50) against the native peptide [7]: ≤ 3 fold
FLLQHLIGL (also called Phe P1 analog; S425F) [PRAME425-433 analog with Phe at P1]			fold difference of affinity (ED50) against the native peptide [7]: ≤ 3 fold
TLLQHLIGL [PRAME425-433 analog with Thr at P1]			fold difference of affinity (ED50) against the native peptide [7]: ≤ 3 fold
YLLQHLIGL [PRAME425-433 analog with Tyr at P1]			fold difference of affinity (ED50) against the native peptide [7]: ≤ 3 fold
[Orn]LLQHLIGL [PRAME425-433 analog with Orn at P1]			fold difference of affinity (ED50) against the native peptide [7]: ≤ 3 fold
XLLQHLIGL (P1 = Hse (homoserine)) [PRAME425-433 analog with Hse at P1]			fold difference of affinity (ED50) against the native peptide [7]: ≤ 3 fold
FLLQHLIG[Nle] (the second is probably S425T L433Nle) [PRAME425-433 S425F L433Nle analog]			fold reduction of ED50 against the native peptide [7]: > 4 fold
TMLQHLIG[Nle] [PRAME425-433 S425T L426M L433Nle analog]			binding result [7]: binds
FMLQHLIG[Nle] [PRAME425-433 analog with Phe at P1, Met at P2 and Nle at PΩ]			binding result [7]: binds
[Phg]ASEKIFYV [SSX2 41-49 (K41(Phg))]			Relative affinity (1/RA) [5]: 2.5 1/RA
B1			Relative affinity (1/RA) [5]: 1.1 1/RA
[Tyr(Me)]ASEKIFYV [SSX2 41-49 (K41(O-methyl Tyr))]			Relative affinity (1/RA) [5]: 0.8 1/RA
[Bta]ASEKIFYV [SSX2 41-49 (K41(b-(3-benzothienyl)Ala))]			Relative affinity (1/RA) [5]: 0.6 1/RA
